Key:
Format in all cases: in vivo
[1] = system: yellow nutsedge (Cyperus esculentus); test: Test B pre-/postemergence plant response
Method in brief: (§1)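 Preemergence and postemergence (plants 2-18 cm, 1- to 4-leaf stage) applications used test chemicals in a non-phytotoxic solvent with surfactant. Plants were held in a greenhouse 13 to 15 days, then rated visually against controls on a 0-100 scale (0 no effect, 100 complete control).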

[2] = system: corn (Zea mays); test: Test B pre-/postemergence plant response
Method in brief: as §1

[3] = system: woolly cupgrass (Eriochloa villosa); test: Test B pre-/postemergence plant response
Method in brief: as §1

[4] = system: velvetleaf (Abutilon theophrasti); test: Test B pre-/postemergence plant response
Method in brief: as §1

[5] = system: cocklebur (Xanthium strumarium); test: Test B pre-/postemergence plant response; conditions: for Cocklebur plant response rating: 8 g ai/ha
Method in brief: as §1

[6] = system: giant foxtail (Setaria faberii); test: Test B pre-/postemergence plant response
Method in brief: as §1

[7] = system: Italian ryegrass (Lolium multiflorum); test: Test B pre-/postemergence plant response
Method in brief: as §1

[8] = system: downy bromegrass (Bromus tectorum); test: Test B pre-/postemergence plant response; conditions: for Bromegrass, Downy plant response rating: 8 g ai/ha
Method in brief: as §1

[9] = system: Russian thistle (Salsola iberica); test: Test B pre-/postemergence plant response; conditions: Preemergence; for Russian Thistle plant response rating: scale 0 to 100
Method in brief: as §1

[10] = system: bermudagrass (Cynodon dactylon); test: Test B pre-/postemergence plant response; conditions: for Bermudagrass plant response rating: 8 g ai/ha
Method in brief: as §1

[11] = system: rice (Oryza sativa); test: Test B flooded paddy test plant response
Method in brief: (§2)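 2-leaf plants; pots flooded 3 cm above soil; compound added to paddy water; depth maintained. Greenhouse 13–15 d. Visual rating vs controls, 0 (no effect) to 100 (complete control); dash = no result.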

[12] = system: barnyardgrass (Echinochloa crus-galli); test: Test B flooded paddy test plant response
Method in brief: as §2

[13] = system: umbrella sedge (Cyperus difformis); test: Test B flooded paddy test plant response
Method in brief: as §2

[14] = system: ducksalad (Heteranthera limosa); test: Test B flooded paddy test plant response
Method in brief: as §2

[15] = 8 g ai/ha, postemergence, 0-100 scale
[16] = Postemergence, 16 g ai/ha, scale 0 to 100
[17] = Postemergence, 31 g ai/ha, scale 0 to 100
[18] = Postemergence, 62 g ai/ha, scale 0 to 100, 0 no effect, 100 complete control
[19] = Preemergence, 31 g ai/ha, scale 0 to 100 (0 no effect, 100 complete control)
[20] = Preemergence, 62 g ai/ha, 0 to 100 scale, 0 no effect, 100 complete control
[21] = Preemergence, 8 g ai/ha, scale 0 to 100
[22] = Preemergence, 16 g ai/ha, scale 0 to 100
[23] = Preemergence, 16 g ai/ha, scale 0 to 100 (0 no effect, 100 complete control)
[24] = 31 g ai/ha, scale 0 to 100 (0 no effect, 100 complete control)
[25] = 62 g ai/ha, 0 to 100 scale, 0 no effect, 100 complete control
[26] = Preemergence, scale 0 to 100 (0 no effect, 100 complete control)
[27] = Flood (flooded paddy test), 62 g ai/ha, scale 0 to 100, 0 no effect, 100 complete control
[28] = Flood (flooded paddy test), 125 g ai/ha, scale 0 to 100, 0 no effect, 100 complete control
[29] = Flood (flooded paddy test), 250 g ai/ha, scale 0 to 100, 0 no effect, 100 complete control
[30] = Flood, 31 g ai/ha, scale 0 to 100
[31] = 16 g ai/ha, postemergence, 0-100 scale

SMILES: CCCC(=O)Oc1cnn(C)c(=O)c1-n1nc(-c2ccc(Cl)cc2)cc1C [Compound 56]
- Nutsedge, Yellow plant response rating [1, 15]: 0
- Plant response rating, Nutsedge, Yellow [1, 16]: 0
- Plant response rating, Nutsedge, Yellow [1, 17]: 0
- Plant response rating, Nutsedge, Yellow [1, 18]: 0
- Plant response rating, Nutsedge, Yellow [1, 19]: 0
- Plant response rating, Nutsedge, Yellow [1, 20]: 0
- Nutsedge, Yellow plant response rating [1, 21]: 0
- Nutsedge, Yellow plant response rating [1, 22]: 0
- Corn plant response rating [2, 15]: 75
- Plant response rating, Corn [2, 16]: 85
- Plant response rating, Corn [2, 17]: 95
- Plant response rating, Corn [2, 18]: 95
- Plant response rating, Corn [2, 19]: 95
- Plant response rating, Corn [2, 20]: 95
- Corn plant response rating [2, 21]: 0
- Corn plant response rating [2, 22]: 10
- Cupgrass, Woolly plant response rating [3, 15]: 95
- Plant response rating, Cupgrass, Woolly [3, 16]: 100
- Plant response rating, Cupgrass, Woolly [3, 17]: 100
- Plant response rating, Cupgrass, Woolly [3, 18]: 100
- Plant response rating, Cupgrass, Woolly [3, 19]: 100
- Plant response rating, Cupgrass, Woolly [3, 20]: 100
- Cupgrass, Woolly plant response rating [3, 21]: 0
- Cupgrass, Woolly plant response rating [3, 22]: 80
- Velvetleaf plant response rating [4, 15]: 0
- Plant response rating, Velvetleaf [4, 16]: 0
- Plant response rating, Velvetleaf [4, 17]: 0
- Plant response rating, Velvetleaf [4, 18]: 0
- Plant response rating, Velvetleaf [4, 19]: 0
- Plant response rating, Velvetleaf [4, 20]: 0
- Velvetleaf plant response rating [4, 21]: 0
- Velvetleaf plant response rating [4, 22]: 0
- Cocklebur plant response rating ([5]; postemergence, 0-100 scale): 0
- Plant response rating, Cocklebur [5, 16]: 0
- Plant response rating, Cocklebur [5, 17]: 0
- Plant response rating, Cocklebur [5, 18]: 0
- Plant response rating, Cocklebur [5, 23]: 0
- Plant response rating, Cocklebur [5, 19]: 0
- Plant response rating, Cocklebur [5, 20]: 0
- Cocklebur plant response rating ([5]; Preemergence, scale 0 to 100): 0
- Foxtail, Giant plant response rating [6, 15]: 75
- Plant response rating, Foxtail, Giant [6, 16]: 98
- Plant response rating, Foxtail, Giant [6, 17]: 98
- Plant response rating, Foxtail, Giant [6, 18]: 100
- Plant response rating, Foxtail, Giant [6, 19]: 100
- Plant response rating, Foxtail, Giant [6, 20]: 100
- Foxtail, Giant plant response rating [6, 21]: 95
- Foxtail, Giant plant response rating [6, 22]: 100
- Ryegrass, Italian plant response rating [7, 15]: 0
- Plant response rating, Ryegrass, Italian [7, 16]: 40
- Plant response rating, Ryegrass, Italian [7, 17]: 60
- Plant response rating, Ryegrass, Italian [7, 18]: 65
- Plant response rating, Ryegrass, Italian [7, 19]: 98
- Plant response rating, Ryegrass, Italian [7, 20]: 100
- Ryegrass, Italian plant response rating [7, 21]: 60
- Ryegrass, Italian plant response rating [7, 22]: 98
- Bromegrass, Downy plant response rating ([8]; postemergence, 0-100 scale): 0
- Plant response rating, Bromegrass, Downy [8, 16]: 0
- Plant response rating, Bromegrass, Downy [8, 17]: 0
- Plant response rating, Bromegrass, Downy [8, 18]: 0
- Plant response rating, Bromegrass, Downy [8, 23]: 20
- Plant response rating, Bromegrass, Downy [8, 19]: 45
- Plant response rating, Bromegrass, Downy [8, 20]: 75
- Bromegrass, Downy plant response rating ([8]; Preemergence, scale 0 to 100): 0
- Plant response rating, Russian Thistle [9, 24]: 0
- Plant response rating, Russian Thistle [9, 25]: 0
- Russian Thistle plant response rating ([9]; 8 g ai/ha): 0
- Russian Thistle plant response rating ([9]; 16 g ai/ha): 0
- Bermudagrass plant response rating ([10]; postemergence, 0-100 scale): 65
- Plant response rating, Bermudagrass [10, 16]: 70
- Plant response rating, Bermudagrass [10, 17]: 95
- Plant response rating, Bermudagrass [10, 18]: 100
- Bermudagrass plant response rating [10, 26]: 85
- Plant response rating, Bermudagrass [10, 23]: 100
- Plant response rating, Bermudagrass [10, 19]: 100
- Plant response rating, Bermudagrass [10, 20]: 100
- Plant response rating, Rice [11, 27]: 0
- Plant response rating, Rice [11, 28]: 0
- Plant response rating, Rice [11, 29]: 10
- Plant response rating, Rice [11, 30]: 0
- Plant response rating, Barnyardgrass [12, 27]: 0
- Plant response rating, Barnyardgrass [12, 28]: 20
- Plant response rating, Barnyardgrass [12, 29]: 60
- Plant response rating, Barnyardgrass [12, 30]: 0
- Plant response rating, Sedge, Umbrella [13, 27]: 75
- Plant response rating, Sedge, Umbrella [13, 28]: 85
- Plant response rating, Sedge, Umbrella [13, 29]: 85
- Plant response rating, Sedge, Umbrella [13, 30]: 70
- Plant response rating, Ducksalad [14, 27]: 0
- Plant response rating, Ducksalad [14, 28]: 40
- Plant response rating, Ducksalad [14, 29]: 75
- Plant response rating, Ducksalad [14, 30]: 0

SMILES: CCc1cc(-c2ccc(C(F)(F)F)cc2)nn1-c1c(O)c(OC)nn(C)c1=O [Compound 66]
- Nutsedge, Yellow plant response rating [1, 15]: 0
- Nutsedge, Yellow plant response rating [1, 31]: 0
- Plant response rating, Nutsedge, Yellow [1, 17]: 0
- Plant response rating, Nutsedge, Yellow [1, 18]: 0
- Plant response rating, Nutsedge, Yellow [1, 19]: 0
- Plant response rating, Nutsedge, Yellow [1, 20]: 100
- Nutsedge, Yellow plant response rating [1, 21]: 0
- Nutsedge, Yellow plant response rating [1, 22]: 0
- Corn plant response rating [2, 15]: 65
- Plant response rating, Corn [2, 16]: 75
- Plant response rating, Corn [2, 17]: 90
- Plant response rating, Corn [2, 18]: 100
- Plant response rating, Corn [2, 19]: 98
- Plant response rating, Corn [2, 20]: 100
- Corn plant response rating [2, 21]: 0
- Corn plant response rating [2, 22]: 70
- Cupgrass, Woolly plant response rating [3, 15]: 90
- Plant response rating, Cupgrass, Woolly [3, 16]: 95
- Plant response rating, Cupgrass, Woolly [3, 17]: 100
- Plant response rating, Cupgrass, Woolly [3, 18]: 100
- Plant response rating, Cupgrass, Woolly [3, 19]: 90
- Plant response rating, Cupgrass, Woolly [3, 20]: 98
- Cupgrass, Woolly plant response rating [3, 21]: 0
- Cupgrass, Woolly plant response rating [3, 22]: 80
- Velvetleaf plant response rating [4, 15]: 0
- Velvetleaf plant response rating [4, 31]: 0
- Plant response rating, Velvetleaf [4, 17]: 0
- Plant response rating, Velvetleaf [4, 18]: 0
- Plant response rating, Velvetleaf [4, 19]: 0
- Plant response rating, Velvetleaf [4, 20]: 0
- Velvetleaf plant response rating [4, 21]: 0
- Velvetleaf plant response rating [4, 22]: 0
- Cocklebur plant response rating ([5]; postemergence, 0-100 scale): 0
- Plant response rating, Cocklebur [5, 16]: 0
- Plant response rating, Cocklebur [5, 17]: 0
- Plant response rating, Cocklebur [5, 18]: 0
- Plant response rating, Cocklebur [5, 23]: 0
- Plant response rating, Cocklebur [5, 19]: 0
- Plant response rating, Cocklebur [5, 20]: 0
- Cocklebur plant response rating ([5]; Preemergence, scale 0 to 100): 0
- Foxtail, Giant plant response rating [6, 15]: 85
- Plant response rating, Foxtail, Giant [6, 16]: 98
- Plant response rating, Foxtail, Giant [6, 17]: 100
- Plant response rating, Foxtail, Giant [6, 18]: 100
- Plant response rating, Foxtail, Giant [6, 19]: 95
- Plant response rating, Foxtail, Giant [6, 20]: 95
- Foxtail, Giant plant response rating [6, 21]: 0
- Foxtail, Giant plant response rating [6, 22]: 45
- Ryegrass, Italian plant response rating [7, 15]: 60
- Ryegrass, Italian plant response rating [7, 31]: 100
- Plant response rating, Ryegrass, Italian [7, 17]: 100
- Plant response rating, Ryegrass, Italian [7, 18]: 100
- Plant response rating, Ryegrass, Italian [7, 19]: 100
- Plant response rating, Ryegrass, Italian [7, 20]: 100
- Ryegrass, Italian plant response rating [7, 21]: 100
- Ryegrass, Italian plant response rating [7, 22]: 100
- Bromegrass, Downy plant response rating ([8]; postemergence, 0-100 scale): 80
- Plant response rating, Bromegrass, Downy [8, 16]: 95
- Plant response rating, Bromegrass, Downy [8, 17]: 98
- Plant response rating, Bromegrass, Downy [8, 18]: 98
- Plant response rating, Bromegrass, Downy [8, 23]: 85
- Plant response rating, Bromegrass, Downy [8, 19]: 100
- Plant response rating, Bromegrass, Downy [8, 20]: 100
- Bromegrass, Downy plant response rating ([8]; Preemergence, scale 0 to 100): 85
- Plant response rating, Russian Thistle [9, 24]: 0
- Plant response rating, Russian Thistle [9, 25]: 0
- Russian Thistle plant response rating ([9]; 8 g ai/ha): 0
- Russian Thistle plant response rating ([9]; 16 g ai/ha): 0
- Bermudagrass plant response rating ([10]; postemergence, 0-100 scale): 20
- Plant response rating, Bermudagrass [10, 16]: 98
- Plant response rating, Bermudagrass [10, 17]: 100
- Plant response rating, Bermudagrass [10, 18]: 100
- Bermudagrass plant response rating [10, 26]: 0
- Plant response rating, Bermudagrass [10, 23]: 85
- Plant response rating, Bermudagrass [10, 19]: 98
- Plant response rating, Bermudagrass [10, 20]: 100
- Plant response rating, Rice [11, 27]: 0
- Plant response rating, Rice [11, 28]: 0
- Plant response rating, Rice [11, 29]: 30
- Plant response rating, Rice [11, 30]: 0
- Plant response rating, Barnyardgrass [12, 27]: 0
- Plant response rating, Barnyardgrass [12, 28]: 20
- Plant response rating, Barnyardgrass [12, 29]: 20
- Plant response rating, Barnyardgrass [12, 30]: 0
- Plant response rating, Sedge, Umbrella [13, 27]: 0
- Plant response rating, Sedge, Umbrella [13, 28]: 0
- Plant response rating, Sedge, Umbrella [13, 29]: 0
- Plant response rating, Sedge, Umbrella [13, 30]: 0
- Plant response rating, Ducksalad [14, 27]: 0
- Plant response rating, Ducksalad [14, 28]: 0
- Plant response rating, Ducksalad [14, 29]: 0
- Plant response rating, Ducksalad [14, 30]: 0
